One data set can be described thus: Fish Toxicity Test. It is filed as in vivo. Conditions: guppy, water; rank; 50% of female guppies killed during 48 hours, 20° C.; [Mixture] = cis/trans 50/50; read-out: TLm (medium tolerance limit). The procedure: (§1) The mixture was stirred well to prepare a test water. Ten female guppies from 3 to 4 months of age were released into the test water and maintained at 20° C. The concentration of the test compound at which 50% of the guppies were killed during the ensuring 48 hours was determined. [This concentration is referred to as TLm (medium tolerance limit, ppm)].
(§2) A rank corresponds to TLm of not less than 10 ppm.
(§3) B rank corresponds to TLm of 0.5-10 ppm.
(§4) C rank corresponds to TLm of not more than 0.5 ppm.

Data set [1] concerns housefly (Musca domestica). The experiment in a line: Mortality test against houseflies by topical application. In kind it is in vivo. The protocol: Each test compound was accurately weighed and a 1% solution and an 0.1% solution of the sample in acetone were prepared. A 1 μl portion of either of the above solutions was micropipetted onto the thoracic dorsal part of each female adult housefly (Musca domestica) under ether anaesthesia and the fly was released in a high-walled dish together with feed. The dish was covered with a metal-wire net and maintained at 25° C. After 24 hours, the test flies were inspected for deaths and the mortality (%) was calculated. Thirty test flies were used per concentration group.

Another data set has as its system guppies. The data set can be described thus: Fish Toxicity Test. In kind it is in vivo. The settings on record: rank; 50% of female guppies killed during 48 hours, 20° C.; [Mixture] = cis/trans 50/50. The procedure:
as §1, §2, §3, §4

Another data set relates to houseflies. The data set can be described thus: Utility Example 3: settling mist method, mortality test against houseflies, oil preparations of Formulation Example 3. In kind it is in vivo. The settings on record: oil preparation of Formulation Example 3 (0.1 part compound + 0.08 part permethrin per 100 parts), 24 hours; cis/trans 50/50. The procedure:
To 0.1 part of each of Compounds (1) to (38) was added 0.08 part of permethrin, followed by the addition of a sufficient amount of kerosene to make 100 parts. The mixture was stirred to obtain an oil preparation of each compound.
By the settling mist method, a mortality test against houseflies was carried out using the oil preparations obtained in Formulation Example 3 from Compounds (1), (5), (7), (9), (11), (12), (15), (17) and (28) [Each compound is a mixture of cis- and trans-isomer in a ratio 50/50]. After 24 hours, the flies were examined for deaths. The mortality (%) was not less than 90% for each of Compounds (1), (5), (7), (9), (11), (12), (15), (17) and (28).

Another data set can be described thus: Light Stability Test. It is filed as physicochemical. The settings on record: ultraviolet light, wavelength=3600 A, 31°-35° C., on glass plate. The protocol: Into 2.0 ml of acetone were dissolved 80 mg of each test compound. A 5 μl portion of the solution was taken and spread on a glass plate (Micro Standard Cover Glass, 18 m/m No. 1, 200 pcs, Matsunami Glass Ind., Ltd.) and the acetone was evaporated. The specimen was exposed to ultraviolet light from a fluorescent lamp (Tokyo Shibaura Electric Co., Ltd., FL20BL, glow-type, 100 V, 24.5 W, wavelength=3600 A) which was fixed just above the specimen at a distance of 11 cm at a temperature of 31°-35° C. for a predetermined exposure time. The test liquid was washed away with 1.0 ml of methanol containing 0.04% of dioctyl phthalate as an internal reference and high-speed liquid chromatography was carried out on the washings to determine the residual amount of the test compound.

Setting [2] is: 1μg/fly, female adult, 24 hours, 25° C., [Mixture] = cis/trans 50/50, read-out: Mortality (%).
The mark [3] stands for this setting: 10μg/fly, female adult, 24 hours, 25° C., [Mixture] = cis/trans 50/50, read-out: Mortality (%).

Like-named read-outs stand apart in the source and are kept apart here. A value given as a limit tells only on which side of the number the result lay.

Data on 22 compounds can be found in patent US4299839A, “Novel pesticides and pesticidal compositions cyclopropanecarboxylates and pesticidal method” (priority 1979, dated 1981).

With `CC1(C)C(C=C(Cl)Cl)C1C(=O)OCc1cccc(Oc2ccccc2)c1` (racemic) [Permethrin, 3-phenoxybenzyl (+)-cis,trans-2,2-dimethyl-3-(2,2-dichlorovinyl)-cyclopropanecarboxylate, reference compound], the LC50 at 48 h in the data set “Fish Toxicity Test” was no more than 0.5 µg/mL.
The term mortality denotes the share of the test organisms that died. As for `CC1(C)[C@H](C(=O)OCc2cccc(Oc3ccccc3)c2)[C@@H]1CC(Cl)(Cl)Cl` (relative stereo) [Compound (1) [Cis-isomer], 3-Phenoxybenzyl 2,2-dimethyl-3-(2,2,2-trichloroethyl)cyclopropanecarboxylate], in data set [1] (24 h), the mortality at 1 µg/fly is 96.7% and the mortality at 10 µg/fly came to 100%. The LC50 at 48 h in “Fish Toxicity Test” was no less than 10 µg/mL.
For `C#CC(OC(=O)[C@@H]1[C@@H](CC(Cl)(Cl)Cl)C1(C)C)c1cccc(Oc2ccccc2)c1` (relative stereo) [Compound (11) [Trans-isomer], 3-Phenoxy-α-ethynylbenzyl 2,2-dimethyl-3-(2,2,2-trichloroethyl)cyclopropanecarboxylate], in the data set on guppies, the “TLm (medium tolerance limit)” value was “A (A rank corresponds to TLm of not less than 10 ppm)”.
Consider `CC1(C)C(CC(Cl)(Cl)Cl)C1C(=O)OCc1cccc(Oc2ccccc2)c1` (stereo not shown) [(1), 3-Phenoxybenzyl 2,2-dimethyl-3-(2,2,2-trichloroethyl)cyclopropanecarboxylate], for which, in the data set with houseflies, the “Mortality (%)” value is “not less than 90%”.
Same read-out and setting: the value for `CC(Cl)(Cl)CC1C(C(=O)OCc2cccc(Oc3ccccc3)c2)C1(C)C` (stereo not shown) [(5), 3-Phenoxybenzyl 2,2-dimethyl-3-(2,2-dichloropropyl)cyclopropanecarboxylate] was “not less than 90%”.
As for `C=CCC1=C(C)C(OC(=O)C2C(C=C(C)C)C2(C)C)CC1=O` (stereo not shown) [Allethrin, reference compound], in data set [1] (24 h), the mortality at 1 µg/fly was found to be 33.3% and the mortality at 10 µg/fly was found to be 100%. Further, the “Residue (%)” value in “Light Stability Test” (exposure time 3.5 hrs.) turned out to be 14%. In “Light Stability Test” (exposure time 3 days), the “Residue (%)” value is listed as 0%. The LC50 at 48 h in the data set “Fish Toxicity Test” was no more than 0.5 µg/mL.
Turning to `CC1(C)C(CC(Cl)(Cl)Cl)C1C(=O)OCc1cccc(Oc2ccc(Cl)cc2)c1` (stereo not shown) [Compound (2) [Mixture], 3-(4-Chlorophenoxy)benzyl 2,2-dimethyl-3-(2,2,2-trichloroethyl)cyclopropanecarboxylate], in data set [1] (24 h), the mortality at 1 µg/fly was 0% and the mortality at 10 µg/fly was found to be 86.7%. The LC50 at 48 h in “Fish Toxicity Test” is no less than 10 µg/mL.
For the compound `CC(Cl)(Cl)CC1C(C(=O)OCc2cccc(Oc3ccccc3)c2)C1(C)C` (stereo not shown) [Compound (5) [Mixture], 3-Phenoxybenzyl 2,2-dimethyl-3-(2,2-dichloropropyl)cyclopropanecarboxylate], in data set [1] (24 h), the mortality at 1 µg/fly was 100% and the mortality at 10 µg/fly was 100%.
Turning to `CC1(C)[C@H](CC(Cl)(Cl)Cl)[C@H]1C(=O)OC(C#N)c1cccc(Oc2ccccc2)c1` (stereo partly drawn) [Compound (7) [Trans-isomer], 3-Phenoxy-α-cyanobenzyl 2,2-dimethyl-3-(2,2,2-trichloroethyl)cyclopropanecarboxylate], the “TLm (medium tolerance limit)” value in the data set on guppies is reported as “B (B rank corresponds to TLm of 0.5-10 ppm)”.
On to `CC(Cl)(Cl)CC1C(C(=O)OC(C#N)c2cccc(Oc3ccccc3)c2)C1(C)C` (stereo not drawn) [Compound (9) [Mixture], 3-Phenoxy-α-cyanobenzyl 2,2-dimethyl-3-(2,2-dichloropropyl)cyclopropanecarboxylate], for which, in data set [1] (24 h), the mortality at 1 µg/fly was found to be 100% and the mortality at 10 µg/fly worked out at 100%.
`C#CC(OC(=O)C1C(CC(Br)(Br)Br)C1(C)C)c1cccc(Oc2ccccc2)c1` (stereo not drawn) [Compound (12) [Mixture], 3-Phenoxy-α-ethynylbenzyl 2,2-dimethyl-3-(2,2,2-tribromoethyl)cyclopropanecarboxylate]: the LC50 at 48 h in the data set “Fish Toxicity Test” was no less than 10 µg/mL.
For `C#CC(OC(=O)[C@@H]1[C@H](CC(C)(Cl)Cl)C1(C)C)c1cccc(Oc2ccccc2)c1` (stereo partly drawn) [Compound (13) [Cis-isomer], 3-Phenoxy-α-ethynylbenzyl 2,2-dimethyl-3-(2,2-dichloropropyl)cyclopropanecarboxylate], the “TLm (medium tolerance limit)” value in the data set with guppies is recorded as “A (A rank corresponds to TLm of not less than 10 ppm)”.
In data set [1] (24 h), `CC1(C)C(CC(Cl)(Cl)Cl)C1C(=O)OC(C#N)c1cccc(Oc2ccc(Cl)cc2)c1` (stereo not drawn) [Compound (15) [Mixture], 3-(4-Chlorophenoxy)-α-cyanobenzyl 2,2-dimethyl-3-(2,2,2-trichloroethyl)cyclopropanecarboxylate] gave a mortality at 1 µg/fly of 86.7% and a mortality at 10 µg/fly of 100%. Besides, in “Fish Toxicity Test”, the LC50 at 48 h is no less than 10 µg/mL.
Regarding `C#CC(OC(=O)C1C(CC(Cl)(Cl)Cl)C1(C)C)c1cccc(Oc2ccc(Cl)cc2)c1` (stereo not drawn) [Compound (21) [Mixture], 3-(4-Chlorophenoxy)-α-ethynylbenzyl 2,2-dimethyl-3-(2,2,2-trichloroethyl)cyclopropanecarboxylate], in data set [1] (24 h), the mortality at 1 µg/fly was 60% and the mortality at 10 µg/fly stood at 93.3%. Also, the LC50 at 48 h in the data set “Fish Toxicity Test” was no less than 10 µg/mL.
In the same order, the values of `CC1(C)C(CC(Cl)(Cl)Cl)C1C(=O)OCc1coc(Cc2ccccc2)c1` (stereo not shown) [Compound (28) [Mixture], 5-Benzyl-3-furylmethyl 2,2-dimethyl-3-(2,2,2-trichloroethyl)cyclopropanecarboxylate] are 86.7%, 100% and no less than 10 µg/mL.
With `CC1(C)C(CC(Cl)(Cl)Cl)C1C(=O)OCc1cccc(OC=C(Cl)Cl)c1` (stereo not shown) [Compound (33) [Mixture], 3-(2,2-dichlorovinyloxy)benzyl 2,2-dimethyl-3-(2,2,2-trichloroethyl)cyclopropanecarboxylate], in data set [1] (setting [2]), the mortality at 1 µg/fly stood at 6.7%. Besides, in data set [1] (setting [3]), the mortality at 10 µg/fly was 33.3%. Moreover, the LC50 at 48 h in the data set “Fish Toxicity Test” is no less than 10 µg/mL.
On to `CC1(C)C(CC(Cl)(Cl)Cl)C1C(=O)OC(C#N)c1cccc(OC=C(Cl)Cl)c1` (stereo not drawn) [Compound (34) [Mixture], 3-(2,2-dichlorovinyloxy)-α-cyanobenzyl 2,2-dimethyl-3-(2,2,2-trichloroethyl)cyclopropanecarboxylate], for which the mortality at 1 µg/fly in data set [1] (setting [2]) came to 56.7%. For the same compound, the mortality at 10 µg/fly in data set [1] (setting [3]) amounted to 100%. Moreover, the “Residue (%)” value in “Light Stability Test” (exposure time 3.5 hrs.) is 100%; in “Light Stability Test” (exposure time 3 days), 88%; in “Light Stability Test” (exposure time 5 days), 44%. Besides, the LC50 at 48 h in “Fish Toxicity Test” is no less than 10 µg/mL.
In data set [1] (24 h), `CC1(C)C(CC(Cl)(Cl)Cl)C1C(=O)OCN1C(=O)C2=C(CCCC2)C1=O` (stereo not shown) [Compound (37) [Mixture], 3,4,5,6-Tetrahydrophthalimidomethyl 2,2-dimethyl-3-(2,2,2-trichloroethyl)cyclopropane carboxylate] yielded a mortality at 1 µg/fly of 40% and a mortality at 10 µg/fly of 56.7%. In “Fish Toxicity Test”, the LC50 at 48 h was 0.5 to 10 µg/mL.
In the same order, the values of `C=CCC1=C(C)C(OC(=O)C2C(CC(Cl)(Cl)Cl)C2(C)C)CC1=O` (stereo not shown) [Compound (38) [Mixture], Allethronyl 2,2-dimethyl-3-(2,2,2-trichloroethyl)cyclopropanecarboxylate] are 6.7%, 100% and 0.5 to 10 µg/mL.
As to `CC1(C)C(C=C(Cl)Cl)C1C(=O)OC(C#N)c1cccc(Oc2ccccc2)c1` (stereo not drawn) [Cypermethrin, 3-phenoxy-α-cyanobenzyl 2,2-dimethyl-3-(2,2-dichlorovinyl)cyclopropanecarboxylate, reference compound], the LC50 at 48 h in “Fish Toxicity Test” was no more than 0.5 µg/mL.
With `CC(C)C(C(=O)OC(C#N)c1cccc(Oc2ccccc2)c1)c1ccc(Cl)cc1` (stereo not drawn) [Fenvalerate, 3-phenoxy-α-cyanobenzyl α-(4-chlorophenyl)isovalerate, reference compound], the LC50 at 48 h in “Fish Toxicity Test” is no more than 0.5 µg/mL.
The same measure, in the same setting: the value for `CC(C)=CC1C(C(=O)OCc2coc(Cc3ccccc3)c2)C1(C)C` (stereo not shown) [Resmethrin, 5-benzyl-3-furylmethyl chrysanthemate, reference compound] was no more than 0.5 µg/mL.
